Test results published in patent US8329711B2, “Pyridone-substituted-dihydropyrazolopyrimidinone derivative” (MSD K.K., priority 2007, dated 2012).

Assays:
[1] = target: T1, Wee1 kinase (Homo sapiens, UniProt P30291); experiment: Wee1 kinase-inhibitory effect (33P-ATP filter assay with GST-tagged Wee1); assay type: biochemical; settings: purified GST-Wee1, Poly(Lys,Tyr) substrate, 10 μM ATP, 30° C. for 30 minutes; read-out: Weel-Inhibitory Effect (IC50)
T1 construct: made in house; host or cells: Sf9 insect cells (recombinant baculovirus)
T1 sequence (P30291 whole entry): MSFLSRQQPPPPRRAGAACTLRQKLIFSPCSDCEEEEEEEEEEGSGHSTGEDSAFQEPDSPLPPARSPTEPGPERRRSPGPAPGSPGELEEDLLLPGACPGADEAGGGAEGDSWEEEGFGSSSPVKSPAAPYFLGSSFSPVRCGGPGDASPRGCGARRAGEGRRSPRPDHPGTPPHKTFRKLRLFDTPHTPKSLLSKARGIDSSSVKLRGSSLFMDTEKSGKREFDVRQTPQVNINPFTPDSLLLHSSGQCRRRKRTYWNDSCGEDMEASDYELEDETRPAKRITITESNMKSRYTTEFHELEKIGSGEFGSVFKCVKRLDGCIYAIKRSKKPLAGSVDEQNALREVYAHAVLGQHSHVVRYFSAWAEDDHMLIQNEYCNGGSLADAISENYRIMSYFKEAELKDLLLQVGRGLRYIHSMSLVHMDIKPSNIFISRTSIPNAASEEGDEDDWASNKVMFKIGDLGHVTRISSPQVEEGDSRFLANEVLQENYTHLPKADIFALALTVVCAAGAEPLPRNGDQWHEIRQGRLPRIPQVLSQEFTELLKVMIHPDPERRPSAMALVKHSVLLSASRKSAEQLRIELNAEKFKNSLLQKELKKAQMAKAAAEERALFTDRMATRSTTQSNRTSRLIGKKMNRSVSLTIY
Source text: Pharmacological Test 1 (Wee1 Kinase-Inhibitory Effect)
(1) Purification of Wee1 Kinase:
A cDNA of Wee1 kinase with glutathion-S-transferase (GST) fused at the amino terminal thereof was inserted into a baculovirus expression vector to construct a recombinant baculovirus, with which cells of an insect cell line Sf9 were infected for high expression therein. The infected cells were collected and solubilized, and then the GST-tagged Wee1 kinase protein was adsorbed by a glutathion column, and eluted from the column with glutathion, and the active fraction was desalted in a desalting column to give a purified enzyme.
(2) Determination of Wee1 Kinase Activity:
In determination of the Wee1 kinase activity, a synthetic peptide, Poly(Lys,Tyr) Hydrobromide (Lys:Tyr (4:1)) bought from Sigma was used as the substrate.
The amount of the reaction liquid was 21.1 μL; and the composition of the reaction buffer was 50 mM Tris-HCl buffer (pH 7.4)/10 mM magnesium chloride/1 mM dithiothreitol. The purified Wee1 kinase, 2.5 μg of the substrate peptide, 10 μM of non-labeled adenosine triphosphate (ATP) and 1 μCi of [γ-^33P]-labeled ATP (2500 Ci/mmol or more) were added to it, and reacted at 30° C. for 30 minutes. Next, 10 μL of 350 mM phosphate buffer was added to the reaction system to stop the reaction. The substrate peptide was adsorbed by a P81 paper filter 96-well plate, then washed a few times with 130 mM phosphate buffer, and its radioactivity was counted with a liquid scintillation counter. The [γ-^33P]-labeled ATP was bought from Amersham Bioscience.
To add a test compound to the reaction system, the compound was diluted with dimethyl sulfoxide (DMSO) to prepare a series of dilutions. 1.1 μL of each dilution was added to the reaction system. As a control, 1.1 μL of DMSO was added to the reaction system.

[2] = tested on: Cdc2 (Cdk1) tyrosine 15 phosphorylation in WiDr cells; experiment: Cdc2 (Cdk1) tyrosine 15-phosphorylation-inhibitory effect in WiDr cells, gemcitabine-treated (ELISA); assay type: cell-based; settings: Homo sapiens, 100 nM gemcitabine 24 hours, then test compound with nocodazole 8 hours, read-out: Cdc2-Y15 Phosphorylation-Inhibitory Effect (WiDr, +gemcitabine) (EC50)
Source text: Pharmacological Test 2 (Method of Determining Drug Potency with Cells (Cdc2 (Cdk1) Tyrosine 15-Phosphorylation-Inhibitory Effect))
Fetal bovine serum (FBS) was gotten from Morgate; media RPMI1640 and DMEM were from Invitrogen; camptothecin was from Sigma; gemcitabine was from Nippon Eli Lilly; nocodazole and protease inhibitor cocktail were from Sigma; rabbit anti-Cdc2 antibody and mouse anti-Cdc2 antibody were from Santa Cruz Biotechnology; rabbit anti-tyrosine 15-phosphorylated Cdc2 antibody and horseradish peroxidase-labeled anti-mouse IgG antibody were from Cell Signaling Technology; sure blue reserve TMB peroxidase substrate was from Kirkegaard and Perry Laboratories.
Human non-small cell lung cancer cells (NCI-H1299) and human colon cancer cells (WiDr) were gotten from American Type Culture Collection (ATCC).
In the method of using WiDr cells, the cells were suspended in a medium of 10% FBS-added DMEM, and the cell suspension was applied to a 96-well Nunclondelta-processed plastic plate in an amount of 2000 cells/100 μL/well, in which the cells were incubated overnight in 5% CO2-95% air at 37° C. Gemcitabine was dissolved in PBS, and diluted with a medium of 10% FBS-added DMEM, and then this was applied to the plate on which the cells had been previously sowed, in an amount of 50 μL/well in such a manner that the final concentration of gemcitabine could be 100 nM. Then, the cells were incubated for 24 hours at 37° C. in 5% CO2-95% air. A test compound was stepwise diluted with DMSO, then diluted with 1200 nM nocodazole-containing, 10% FBS-added DMEM, and applied to the plate on which the […] cells had been sowed, in an amount of 50 μL/well. The cells were incubated for 8 hours at 37° C. in 5% CO2-95% air, then the culture was removed, and a cytolytic buffer was added to the plate in an amount of 100 μL/well, shaken at 4° C. for 2 hours, then frozen at −80° C., and thawed to give a cell solution. […] Cdc2 was determined through ELISA as follows: A rabbit anti-Cdc2 antibody solution, which had been diluted 200-fold with 50 mM carbonate-bicarbonate buffer (pH 9.6), was applied to a 96-well maxisorp plastic plate in an amount of 50 μL/well, and statically kept overnight at 4° C. so as to fix the antibody on the plate. […] Then, 1 M hydrochloric acid was added to it in an amount of 100 μL/well to stop the reaction, and this was analyzed through colorimetry. Tyrosine 15-phosphorylated Cdc2 was determined through ELISA as follows: A rabbit anti-tyrosine 15-phosphorylated Cdc2 antibody solution, which had been diluted 100-fold with 50 mM carbonate-bicarbonate buffer (pH 9.6), was applied to a 96-well maxisorp plastic plate in an amount of 50 μL/well, and statically kept overnight at 4° C. so as to fix the antibody on the plate. […]

Row | SMILES | IC50 [1] [nM] | EC50 [2] [nM]
1 | C=CCn1c(=O)c2cnc(Nc3ccc(N4CC[C@@H](N(C)C)C4)cc3)nc2n1-c1cccc(-n2ccccc2=O)n1 [Example 2, 6′-[2-allyl-6-({4-[(3R)-3-(dimethylamino)pyrrolidin-1-yl]phenyl}amino)-3-oxo-2,3-dihydro-1H-pyrazolo[3,4-d]pyrimidin-1-yl]-2H-1,2′-bipyridin-2-one] | 18 | 110
2 | C=CCn1c(=O)c2cnc(Nc3ccc(N4CC[C@H](N(C)C)C4)cc3)nc2n1-c1cccc(-n2ccccc2=O)n1 [Example 3, 6′-[2-allyl-6-({4-[(3S)-3-(dimethylamino)pyrrolidin-1-yl]phenyl}amino)-3-oxo-2,3-dihydro-1H-pyrazolo[3,4-d]pyrimidin-1-yl]-2H-1,2′-bipyridin-2-one] | 16 | –
3 | C=CCn1c(=O)c2cnc(Nc3ccc(N4CCN(C)CC4)cc3)nc2n1-c1cc(F)cc(-n2ccccc2=O)c1 [Example 4, 2-allyl-1-[3-fluoro-5-(2-oxopyridin-1(2H)-yl)phenyl]-6-{[4-(4-methylpiperazin-1-yl)phenyl]amino}-1,2-dihydro-3H-pyrazolo[3,4-d]pyrimidin-3-one] | 7.2 | 86
4 | C=CCn1c(=O)c2cnc(Nc3ccc(C4CCN(C)CC4)cc3)nc2n1-c1cccc(-n2ccccc2=O)c1 [Example 8] | 24 | 170
5 | C=CCn1c(=O)c2cnc(Nc3ccc(C4CCN(C)CC4)cc3)nc2n1-c1cccc(-n2ccccc2=O)n1 [Example 9, 6′-(2-Allyl-6-{[4-(1-methylpiperidin-4-yl)phenyl]amino}-3-oxo-2,3-dihydro-1H-pyrazolo[3,4-d]pyrimidin-1-yl)-2H-1,2′-bipyridin-2-one] | 11 | –
6 | C=CCn1c(=O)c2cnc(Nc3ccc(N4CCN(C)CC4)c(C)c3)nc2n1-c1cccc(-n2ccccc2=O)n1 [Example 11, 6′-(2-Allyl-6-{[3-methyl-4-(4-methylpiperazin-1-yl)phenyl]amino}-3-oxo-2,3-dihydro-1H-pyrazolo[3,4-d]pyrimidin-1-yl)-2H-1,2′-bipyridin-2-one] | 10 | 92
7 | C=CCn1c(=O)c2cnc(Nc3ccc(N4CC(F)(F)C4)cc3)nc2n1-c1cccc(-n2ccccc2=O)n1 [Example 17, 6′-(2-Allyl-6-{[4-(3,3-difluoroazetidin-1-yl)phenyl]amino}-3-oxo-2,3-dihydro-1H-pyrazolo[3,4-d]pyrimidin-1-yl)-2H-1,2′-bipyridin-2-one] | 6.9 | –
8 | C=CCn1c(=O)c2cnc(Nc3cccc(C4CCN(C)CC4)c3)nc2n1-c1cccc(-n2ccccc2=O)n1 [Example 27, 6′-(2-Allyl-6-{[3-(1-methylpiperizin-4-yl)phenyl]amino}-3-oxo-2,3-dihydro-1H-pyrazolo[3,4-d]pyrimidin-1-yl)-2H-1,2′-bipyridin-2-one] | 6.9 | –
9 | C=CCn1c(=O)c2cnc(Nc3ccc(OC)c(CO)c3)nc2n1-c1cccc(-n2ccccc2=O)n1 [Example 29, 6′-(2-Allyl-6-{[3-(hydroxymethyl)-4-methoxyphenyl]amino}-3-oxo-2,3-dihydro-1H-pyrazolo[3,4-d]pyrimidin-1-yl)-2H-1,2′-bipyridin-2-one] | 6.5 | –
10 | CN1Cc2cc(Nc3ncc4c(=O)n(C)n(-c5cccc(-n6ccccc6=O)n5)c4n3)ccc2C2(CC2)C1 [Example 38, 6′-{2-Methyl-6-[(2′-methyl-2′,3′-dihydro-1′H-spiro[cyclopropane-1,4′-isoquinolin]-7′-yl)amino]-3-oxo-2,3-dihydro-1H-pyrazolo[3,4-d]pyrimidin-1-yl}-2H-1,2′-bipyridin-2-one] | 12.6 | –
11 | CC(C)n1c(=O)c2cnc(Nc3ccc4c(c3)CN(C)CC43CC3)nc2n1-c1cccc(-n2ccccc2=O)n1 [Example 39, 6′-{2-Isopropyl-6-[(2′-methyl-2′,3′-dihydro-1′H-spiro[cyclopropane-1,4′-isoquinolin]-7′-yl)amino)-3-oxo-2,3-dihydro-1H-pyrazolo[3,4-d]pyrimidin-1-yl]-2H-1,2′-bipyridin-2-one] | 20.6 | –
12 | C#CCn1c(=O)c2cnc(Nc3ccc4c(c3)CN(C)CC4)nc2n1-c1cccc(-n2ccccc2=O)n1 [Example 42, 6′-{6-[(2-Methyl-1,2,3,4-tetrahydroisoquinolin-7-yl)amino]-3-oxo-2-(2-propynyl)-2,3-dihydro-1H-pyrazolo[3,4-d]pyrimidin-1-yl}-2H-1,2′-bipyridin-2-one] | 4.4 | –
